Test results taken from patent publication US8697727B2, “N-substituted-heterocycloalkyloxybenzamide compounds and methods of use” (Rigel Pharmaceuticals, Inc., priority 2006, dated 2014).
pEC50: −log10 of the molar value.

Tested on: AMPK
Assay: AMPK activation, enzyme-linked immunosorbent assay
Assay type: cell-based
In short: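 AMPK activity in cells was measured by enzyme-linked immunosorbent assay as the relative concentration of phosphorylated acetyl-CoA carboxylase, which AMPK produces. From this, an EC50 for AMPK activation was determined for each compound. Ranges used: less than 1 μM, 1-10 μM, 10-20 μM, 20-50 μM, 50-100 μM, and >100 μM.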

Row | Structure (SMILES) | pEC50
1 | O=C(NC1CCN(Cc2ccccc2)CC1)c1ccc(OC2CCNCC2)c(Cl)c1 [Compound 93, N-(1-benzylpiperidin-4-yl)-3-chloro-4-(piperidin-4-yloxy)benzamide] | < 4.00
2 | O=C(NC1CCN(Cc2ccccc2)CC1)c1ccc(OC2CCN(Cc3cccc(C(F)(F)F)c3)CC2)c(Cl)c1 [Compound 60, N-(1-benzylpiperidin-4-yl)-3-chloro-4-(1-(3-(trifluoromethyl)benzyl)piperidin-4-yloxy)benzamide] | > 6.00
3 | N#Cc1ccc(N2CCC(Oc3cccc(C(=O)NC4CCN(Cc5ccccc5)CC4)c3)CC2)cc1 [Compound 48, N-(1-benzylpiperidin-4-yl)-3-(1-(4-cyanophenyl)piperidin-4-yloxy)benzamide] | > 6.00
4 | O=C(NC1CCN(Cc2ccccc2)CC1)c1ccc(OC2CCN(Cc3ccc4c(c3)OCCO4)CC2)c(Cl)c1 [Compound 15, N-(1-benzylpiperidin-4-yl)-3-chloro-4-(1-((2,3-dihydrobenzo[b][1,4]dioxin-6-yl)methyl)piperidin-4-yloxy)benzamide] | > 6.00
5 | CC(C)(C)OC(=O)N1CCN(C(=O)c2ccc(OC3CCN(Cc4ccccc4)CC3)cc2)CC1 [Compound 99, tert-butyl 4-(4-(1-benzylpiperidin-4-yloxy)benzoyl)piperazine-1-carboxylate] | 5.00 to 6.00
6 | CC(c1ccccc1)N1CCC(Oc2ccc(C(=O)NC3CCN(Cc4ccccc4)CC3)cc2F)CC1 (centres unmarked) [Compound 21, N-(1-benzylpiperidin-4-yl)-3-fluoro-4-(1-(1-phenylethyl)piperidin-4-yloxy)benzamide] | 5.00 to 6.00
7 | Cn1cncc1CN1CCC(Oc2ccc(C(=O)NC3CCN(Cc4ccccc4)CC3)cc2Cl)CC1 [Compound 5, N-(1-benzylpiperidin-4-yl)-3-chloro-4-(1-((l-methyl-1H-imidazol-5-yl)methyl)piperidin-4-yloxy)benzamide] | 4.00 to 4.30
8 | O=C(NC1CCN(Cc2ccc(Cl)cc2)CC1)c1ccc(OC2CCN(Cc3ccc(Cl)c(Cl)c3)CC2)c(F)c1 [Compound 80, N-(1-(4-chlorobenzyl)piperidin-4-yl)-4-(1-(3,4-dichlorobenzyl)piperidin-4-yloxy)-3-fluorobenzamide] | > 6.00
9 | O=C(NC1CCN(Cc2ccccn2)CC1)c1ccc(OC2CCN(c3ccc(C(F)(F)F)cc3)CC2)c(F)c1 [Compound 32, 3-fluoro-N-(1-(pyridin-2-ylmethyl)piperidin-4-yl)-4-(1-(4-(trifluoromethyl)phenyl)piperidin-4-yloxy)benzamide] | > 6.00
10 | O=C(NC1CCN(Cc2ccccc2)CC1)c1ccc(OC2CCN(Cc3ccccc3C(F)(F)F)CC2)c(Cl)c1 [Compound 24, N-(1-benzylpiperidin-4-yl)-3-chloro-4-(1-(2-(trifluoromethyl)benzyl)piperidin-4-yloxy)benzamide] | 4.70 to 5.00
11 | O=C(NC1CCN(C(=O)c2ccncc2)CC1)c1ccc(OC2CCN(c3ccc(C(F)(F)F)cc3)CC2)c(F)c1 [Compound 40, 3-fluoro-N-(1-isonicotinoylpiperidin-4-yl)-4-(1-(4-(trifluoromethyl)phenyl)piperidin-4-yloxy)benzamide] | > 6.00
12 | O=C(NC1CCN(Cc2ccccc2)CC1)c1cc(Cl)c(OC2CCN(Cc3ccc(F)c(F)c3)CC2)c(Cl)c1 [Compound 76, N-(1-benzylpiperidin-4-yl)-3,5-dichloro-4-(1-(3,4-difluorobenzyl)piperidin-4-yloxy)benzamide] | > 6.00
13 | O=C(NC1CCN(Cc2ccccc2)CC1)c1ccc(OC2CCN(Cc3ccncc3)CC2)c(Cl)c1 [Compound 6, N-(1-benzylpiperidin-4-yl)-3-chloro-4-(1-(pyridin-4-ylmethyl)piperidin-4-yloxy)benzamide] | > 6.00
14 | O=C(NC1CCN(C(=O)c2ccc(F)cc2)CC1)c1ccc(OC2CCN(c3ccc(C(F)(F)F)cc3)CC2)c(F)c1 [Compound 31, 3-fluoro-N-(1-(4-fluorobenzoyl)piperidin-4-yl)-4-(1-(4-(trifluoromethyl)phenyl)piperidin-4-yloxy)benzamide] | > 6.00
15 | O=C(NC1CCN(Cc2ccccc2)CC1)c1ccc(OC2CCN(c3ccco3)CC2)c(Cl)c1 [Compound 11, N-(1-benzylpiperidin-4-yl)-3-chloro-4-(1-(furan-2-yl)piperidin-4-yloxy)benzamide] | 5.00 to 6.00
16 | O=C(NC1CCN(Cc2ccc(F)cc2)CC1)c1ccc(OC2CCN(c3ccc(C(F)(F)F)cc3)CC2)c(F)c1 [Compound 27, 3-fluoro-N-(1-(4-fluorobenzyl)piperidin-4-yl)-4-(1-(4-(trifluoromethyl)phenyl)piperidin-4-yloxy)benzamide] | > 6.00
17 | COc1cc(C(=O)NCCCN2CCOCC2)ccc1OC1CCN(Cc2ccc(Cl)cc2)CC1 [Compound 98] | 5.00 to 6.00
18 | O=C(NC1CCN(Cc2ccccc2)CC1)c1ccc(OC2CCN(Cc3ccc(C(F)(F)F)cc3)CC2)c(F)c1 [Compound 55, N-(1-benzylpiperidin-4-yl)-3-fluoro-4-(1-(4-(trifluoromethyl)benzyl)piperidin-4-yloxy)benzamide] | > 6.00
19 | O=C(NC1CCN(Cc2ccc(Cl)cc2)CC1)c1ccc(OC2CCN(Cc3ccc(Cl)cc3)CC2)c(F)c1 [Compound 72, N-(1-(4-chlorobenzyl)piperidin-4-yl)-4-(1-(4-chlorobenzyl)piperidin-4-yloxy)-3-fluorobenzamide] | > 6.00
20 | O=C(NC1CCN(Cc2ccccc2)CC1)c1ccc(OC2CCN(c3ccc(C(F)(F)F)cc3)CC2)c(Cl)c1 [Compound 17, N-(1-benzylpiperidin-4-yl)-3-chloro-4-(1-(4-(trifluoromethyl)phenyl)piperidin-4-yloxy)benzamide] | > 6.00
21 | CC(C)(C)c1ccc(CN2CCC(Oc3ccc(C(=O)NC4CCN(c5ccccc5)CC4)cc3F)CC2)cc1 [Compound 36, 4-(1-(4-tert-butylbenzyl)piperidin-4-yloxy)-3-fluoro-N-(1-phenylpiperidin-4-yl)benzamide] | > 6.00
22 | O=C(NC1CCN(Cc2ccccc2)CC1)c1cc(Cl)c(OC2CCN(Cc3cccc(C(F)(F)F)c3)CC2)c(Cl)c1 [Compound 62, N-(1-benzylpiperidin-4-yl)-3,5-dichloro-4-(1-(3-(trifluoromethyl)benzyl)piperidin-4-yloxy)benzamide] | > 6.00
23 | O=C(NC1CCN(Cc2ccccc2)CC1)c1ccc(OC2CCN(c3cccs3)CC2)c(Cl)c1 [Compound 10, N-(1-benzylpiperidin-4-yl)-3-chloro-4-(1-(thiophen-2-yl)piperidin-4-yloxy)benzamide] | 5.00 to 6.00
24 | O=C(NC1CCN(Cc2ccccc2)CC1)c1cccc(OC2CCN(Cc3ccc(C(F)(F)F)cc3)CC2)c1 [Compound 52, N-(1-benzylpiperidin-4-yl)-3-(1-(4-(trifluoromethyl)benzyl)piperidin-4-yloxy)benzamide] | 5.00 to 6.00
25 | O=C(NC1CCN(Cc2ccccc2)CC1)c1ccc(OC2CCN(Cc3ccc(Cl)cc3)CC2)c(F)c1 [Compound 64, N-(1-benzylpiperidin-4-yl)-4-(1-(4-chlorobenzyl)piperidin-4-yloxy)-3-fluorobenzamide] | > 6.00
26 | O=C(NC1CCN(Cc2ccccc2)CC1)c1ccc(OC2CCN(Cc3ccc(F)c(F)c3)CC2)c(Cl)c1 [Compound 74, N-(1-benzylpiperidin-4-yl)-3-chloro-4-(1-(3,4-difluorobenzyl)piperidin-4-yloxy)benzamide] | > 6.00
